Substitutions are numbered along the chain they refer to. Converted amounts (≈) assume the structure as drawn. Blank lines part the entries; values can stand above or below the molecule they belong to.
Tests used:
Renin [1] = target: T1, Renin (Homo sapiens, UniProt P00797); type: cell-free, Plasma
T1 sequence (P00797 whole entry): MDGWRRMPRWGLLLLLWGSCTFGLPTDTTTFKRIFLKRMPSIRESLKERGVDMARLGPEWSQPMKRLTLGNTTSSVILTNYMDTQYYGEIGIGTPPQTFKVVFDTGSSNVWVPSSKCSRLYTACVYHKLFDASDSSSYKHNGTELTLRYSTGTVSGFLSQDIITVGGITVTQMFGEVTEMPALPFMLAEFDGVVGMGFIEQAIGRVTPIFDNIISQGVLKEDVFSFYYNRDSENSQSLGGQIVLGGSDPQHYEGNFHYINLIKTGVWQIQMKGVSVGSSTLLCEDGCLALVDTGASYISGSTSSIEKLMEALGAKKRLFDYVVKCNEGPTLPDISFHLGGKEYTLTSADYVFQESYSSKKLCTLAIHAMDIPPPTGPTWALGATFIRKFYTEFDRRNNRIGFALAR

Renin [2] = target: T1, Renin; assay: Inhibition of human recombinant renin in buffer
[3] = Distribution coefficient, log D of the compound; type: physicochemical; conditions: octanol/water
[4] = Oral bioavailability in rat; type: ADME, organism-based; conditions: in vivo
[5] = Oral bioavailability in Wistar rat; type: ADME, organism-based; conditions: in vivo
[6] = Elimination half life in Wistar rat; type: ADME, organism-based; conditions: in vivo, read-out: beta t1/2 (converted)
[7] = Tmax in Wistar rat; type: ADME, organism-based; conditions: in vivo
Renin [8] = target: T1, Renin; assay: Binding affinity to human recombinant renin by isothermal titration calorimetry
Renin [9] = target: T1, Renin; assay: Inhibition of renin in human plasma; type: cell-free
Renin [10] = target: T2, Renin (Macaca mulatta, UniProt Q6DLW5); assay: Inhibition of renin in monkey plasma
T2 sequence (Q6DLW5 whole entry): T1 sequence (P00797 whole entry) with T68A, I214L, S235A, Q270P, R406H

Renin [11] = target: T1, Renin; assay: Inhibition of renin in pH 7.4 buffer
[12] = Aqueous solubility of the compound at pH 6.6 buffer; type: physicochemical
[13] = (§1) Oral bioavailability in dog; type: ADME, organism-based, Canis lupus familiaris; conditions: in vivo
[14] = Partition coefficient, log P of the compound at pH 7.4; type: physicochemical; conditions: octanol/water
Canis familiaris = assay: as §1; type: ADME, organism-based, Canis lupus familiaris; conditions: in vivo
Callithrix jacchus = assay: Oral bioavailability in marmoset; type: ADME, organism-based; conditions: in vivo
Renin-1 = target: T3, Renin-1 (Mus musculus, UniProt P06281); assay: Inhibition of mouse renin
T3 sequence (P06281 whole entry): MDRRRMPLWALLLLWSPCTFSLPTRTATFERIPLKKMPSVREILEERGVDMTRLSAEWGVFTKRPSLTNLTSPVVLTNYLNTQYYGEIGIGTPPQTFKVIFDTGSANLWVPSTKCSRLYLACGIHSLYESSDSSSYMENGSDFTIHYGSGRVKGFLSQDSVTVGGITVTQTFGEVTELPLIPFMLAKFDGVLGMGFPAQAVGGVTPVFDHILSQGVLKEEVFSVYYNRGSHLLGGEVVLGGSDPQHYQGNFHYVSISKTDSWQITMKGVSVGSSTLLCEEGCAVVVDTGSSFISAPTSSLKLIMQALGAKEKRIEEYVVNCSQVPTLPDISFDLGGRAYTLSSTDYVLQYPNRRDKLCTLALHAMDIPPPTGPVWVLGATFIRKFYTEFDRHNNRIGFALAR

[15] = Competitive inhibition of pig pepsin at pH 5; set-up: species or system Sus scrofa
[16] = target: Voltage-gated inwardly rectifying potassium channel KCNH2 (Homo sapiens, UniProt Q12809); assay: Inhibition of human ERG
[17] = Oral bioavailability in monkey; type: ADME, organism-based, Macaca mulatta; conditions: rhesus monkey, in vivo
Cathepsin D = Cathepsin D (Homo sapiens, UniProt P07339); assay: Inhibition of cathepsin D
Cathepsin E = target: T4, Cathepsin E (Homo sapiens, UniProt P14091); assay: Inhibition of cathepsin E
T4 sequence (P14091 whole entry): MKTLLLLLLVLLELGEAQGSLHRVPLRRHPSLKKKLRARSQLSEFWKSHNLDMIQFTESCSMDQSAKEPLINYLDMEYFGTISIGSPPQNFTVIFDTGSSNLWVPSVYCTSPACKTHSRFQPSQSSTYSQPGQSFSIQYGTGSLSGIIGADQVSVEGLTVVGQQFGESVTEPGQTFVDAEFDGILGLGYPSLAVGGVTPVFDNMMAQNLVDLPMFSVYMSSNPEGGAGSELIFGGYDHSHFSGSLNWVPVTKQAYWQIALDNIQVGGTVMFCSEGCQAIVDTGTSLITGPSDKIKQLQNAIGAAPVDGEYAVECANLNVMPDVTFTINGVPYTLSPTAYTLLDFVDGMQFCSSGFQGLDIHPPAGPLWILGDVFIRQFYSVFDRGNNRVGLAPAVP

[18] = Oral bioavailability in rhesus monkey; type: ADME, organism-based, Macaca mulatta; conditions: in vivo
[19] = Elimination half life in dog; type: ADME, organism-based, Canis lupus familiaris; conditions: in vivo, read-out: beta t1/2 (converted)
[20] = Elimination half life in rhesus monkey; type: ADME, organism-based, Macaca mulatta; conditions: in vivo, read-out: beta t1/2 (converted)
Cytochrome P450 3A4 = Cytochrome P450 3A4 (Homo sapiens, UniProt P08684); assay: Inhibition of CYP3A4; type: ADME
[21] = Inhibition of Cytochrome P450; type: ADME

Cathepsin D, sequence (P07339 65-162 limits assumed): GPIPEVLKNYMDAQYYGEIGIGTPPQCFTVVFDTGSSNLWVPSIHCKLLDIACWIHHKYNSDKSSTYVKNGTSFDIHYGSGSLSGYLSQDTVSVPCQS
Cathepsin D, sequence (P07339 169-412 limits assumed): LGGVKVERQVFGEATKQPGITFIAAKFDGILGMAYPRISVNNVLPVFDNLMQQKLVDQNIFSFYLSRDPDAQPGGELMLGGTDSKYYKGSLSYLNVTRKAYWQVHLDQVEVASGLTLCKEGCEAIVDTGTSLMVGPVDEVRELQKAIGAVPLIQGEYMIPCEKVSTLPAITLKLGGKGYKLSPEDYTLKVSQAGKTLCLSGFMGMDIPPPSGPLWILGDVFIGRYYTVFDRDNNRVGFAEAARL
Cytochrome P450 3A4, sequence (P08684 whole entry): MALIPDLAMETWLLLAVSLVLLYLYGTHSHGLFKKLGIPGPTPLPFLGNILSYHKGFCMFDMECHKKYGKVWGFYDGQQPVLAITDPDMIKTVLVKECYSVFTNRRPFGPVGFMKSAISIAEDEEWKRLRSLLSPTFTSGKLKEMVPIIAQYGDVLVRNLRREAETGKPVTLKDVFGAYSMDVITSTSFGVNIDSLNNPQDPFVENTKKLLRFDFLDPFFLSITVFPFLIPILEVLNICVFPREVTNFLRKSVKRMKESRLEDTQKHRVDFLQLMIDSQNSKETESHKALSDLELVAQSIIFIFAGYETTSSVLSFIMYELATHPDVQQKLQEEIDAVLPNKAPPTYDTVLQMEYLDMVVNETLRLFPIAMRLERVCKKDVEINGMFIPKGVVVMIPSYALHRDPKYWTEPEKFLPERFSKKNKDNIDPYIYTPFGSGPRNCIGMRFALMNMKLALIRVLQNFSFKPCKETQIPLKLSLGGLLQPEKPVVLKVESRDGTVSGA
Voltage-gated inwardly rectifying potassium channel KCNH2, sequence (Q12809 whole entry): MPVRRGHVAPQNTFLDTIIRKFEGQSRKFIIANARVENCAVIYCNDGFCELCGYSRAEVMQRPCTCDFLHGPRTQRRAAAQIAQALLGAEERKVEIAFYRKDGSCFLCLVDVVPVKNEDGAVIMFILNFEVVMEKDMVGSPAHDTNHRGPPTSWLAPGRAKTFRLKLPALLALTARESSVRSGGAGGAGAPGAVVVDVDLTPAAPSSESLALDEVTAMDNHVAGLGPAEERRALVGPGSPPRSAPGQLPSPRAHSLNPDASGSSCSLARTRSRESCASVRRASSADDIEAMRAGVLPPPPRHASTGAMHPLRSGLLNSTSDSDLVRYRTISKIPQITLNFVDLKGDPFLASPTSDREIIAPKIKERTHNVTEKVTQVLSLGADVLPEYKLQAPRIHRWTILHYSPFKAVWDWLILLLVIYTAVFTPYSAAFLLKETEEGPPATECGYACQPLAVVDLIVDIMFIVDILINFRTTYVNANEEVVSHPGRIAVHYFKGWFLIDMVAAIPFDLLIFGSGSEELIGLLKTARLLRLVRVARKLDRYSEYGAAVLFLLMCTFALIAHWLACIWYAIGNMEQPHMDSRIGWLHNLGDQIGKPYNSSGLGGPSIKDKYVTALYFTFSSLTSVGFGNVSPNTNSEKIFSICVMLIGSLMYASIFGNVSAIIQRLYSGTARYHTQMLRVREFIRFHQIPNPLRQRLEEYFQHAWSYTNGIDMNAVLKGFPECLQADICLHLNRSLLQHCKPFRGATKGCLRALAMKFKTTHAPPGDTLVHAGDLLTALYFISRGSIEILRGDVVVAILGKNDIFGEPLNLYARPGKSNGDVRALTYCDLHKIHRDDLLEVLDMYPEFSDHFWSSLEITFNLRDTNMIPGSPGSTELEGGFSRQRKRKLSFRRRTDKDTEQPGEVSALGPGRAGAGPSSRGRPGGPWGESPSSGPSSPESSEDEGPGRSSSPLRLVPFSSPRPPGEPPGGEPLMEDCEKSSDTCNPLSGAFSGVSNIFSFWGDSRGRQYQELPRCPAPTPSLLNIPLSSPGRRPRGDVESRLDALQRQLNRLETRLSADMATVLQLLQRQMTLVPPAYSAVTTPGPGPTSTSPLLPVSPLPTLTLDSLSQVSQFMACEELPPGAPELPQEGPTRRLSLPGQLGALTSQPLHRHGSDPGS

Compound: Cc1cc(Cl)c(OCCOc2ccc(C3=C(C(=O)N(Cc4cccc(C)c4C)C4CC4)[C@H]4CNC[C@@H](C3)N4)cc2)c(Cl)c1
- IC50 (Renin [1]): 19 nM
- IC50 (Renin [2]): 0.2 nM
- logD [3]: > 4.9
- bioavailability [4]: 24%
- bioavailability [5]: 24%
- half-life [6]: 396 min
- Tmax [7]: 10 h

Compound: CCCCNC(=O)[C@H](C)C[C@H](O)[C@@H](N)CC(C)(C)CC(=O)N1C[C@H](C(=O)OC)Cc2ccccc21
- IC50 (Renin [2]): 0.8 nM

Compound: C=CC[C@H](NC(=O)CNS(=O)(=O)N1CCOCC1)C(=O)N[C@@H](CC1CC=C(c2cccc3ccccc23)CC1)[C@@H](O)[C@@H](O)CC(C)C (stereo not given in full)
- IC50 (Renin [10]): 11 nM

Compound: CCC(C)C[C@H](NC(=O)[C@@H](NC[C@@H](O)[C@@H](N)CCCc1ccc(-c2ccccc2)cc1)C(C)C)C(=O)NCCCc1ccccc1 (stereo not given in full)
- IC50 (Renin [11]): 4 nM

Compound: CCCCNC(=O)[C@H](C)C[C@H](O)[C@@H](N)C[C@@H](CNC(=O)c1cn(CC)c2ccccc12)C(C)C
- IC50 (Renin [1]): 4 nM

Compound: CC(C)C[C@H](O)[C@H](O)[C@H](CC1CCCCC1)NC(=O)[C@H](Cc1cnc[nH]1)NC(=O)C[C@H](C)c1ccccc1
- IC50 (Renin [2]): 11 nM

Compound: CCCCNC(=O)[C@H](C)C[C@H](O)[C@@H](N)C[C@H](C)COC(=O)c1cn(Cc2ccccc2)c2ccccc12
- IC50 (Renin [2]): 1 nM

Compound: CNC[C@H](CC1CCCCC1)NC(=O)N1CCC[C@@H]([C@@H](OCCCOC)c2ccccc2)C1
- IC50 (Renin [1]): 447 nM
- bioavailability [4]: 36%

Compound: CC[C@H]1CC[C@](O)(CCc2ccccc2)C[C@@H]1C(=O)N[C@@H](CC1CCCCC1)[C@@H](O)[C@@H](O)CC(C)C
- IC50 (Renin [2]): 11 nM

Compound: COCCCOc1cc(C[C@@H](C[C@H](N)[C@@H](O)C[C@H](C(=O)NCC(C)(C)C(N)=O)C(C)C)C(C)C)ccc1OC
- F (Canis familiaris): 32%
- F (Callithrix jacchus): 16%
- IC50 (Renin-1): 4.5 nM

Compound: CCc1nc(N)nc(N)c1-c1ccc2c(c1)N(CCNC(C)=O)C(=O)[C@](C)(c1ccccc1)O2
- bioavailability [4]: 10%

Compound: CNC[C@H](CC1CCCCC1)NC(=O)N1CCC[C@@H]([C@@](O)(CCCCOC)c2cccc(Cl)c2)C1
- solubility [12]: > 1000 µg/mL
- bioavailability [4]: 13%
- IC50 [16]: > 30 µM

Compound: O=C(C1=C(c2ccc(CCCOc3c(F)ccc(F)c3Cl)cc2)C[C@@H]2CNC[C@H]1N2)N(Cc1cccc(Cl)c1Cl)C1CC1
- logD [3]: > 4.6
- bioavailability [13]: 36%
- bioavailability [17]: 9%
- IC50 (Cathepsin D): 2700 nM
- IC50 (Cathepsin E): 8.1 µM
- bioavailability [18]: 9%
- half-life [19]: 600 min
- half-life [20]: 600 min
- IC50 (Cytochrome P450 3A4): > 10 µM

Compound: CNC[C@H](CC1CCCCC1)NC(=O)N1CCC[C@@H]([C@@H](OCCNC(=O)OC)c2cccc(Cl)c2)C1
- IC50 (Renin [1]): 0.8 nM
- bioavailability [4]: 9%

Compound: CCc1nc(N)nc(N)c1-c1ccc2c(c1)N(CCCO)C(=O)C(C)(c1ccccc1)O2 (racemic)
- bioavailability [4]: 44%
- IC50 [21]: > 30 µM

Compound: CN[C@H](CNC(=O)N1CCC[C@@H]([C@@H](OCCNC(=O)OC)c2cccc(Cl)c2)C1)C[C@H]1CCCOC1 [VTP-27999]
- IC50 (Renin [1]): < 10 nM

The remaining lines, values ahead:

- Kd (Renin [8]): 79 nM
Compound: CCc1nc(N)nc(NCCNS(=O)(=O)c2ccc3ccccc3c2)c1-c1ccc2c(c1)N(CCCOC)C(=O)C(C)(C)O2

- IC50 (Renin [2]): 2 nM
Compound: COC[C@@H]1CNC[C@H](OCc2ccc3ccccc3c2)[C@H]1c1ccc(COC(=O)c2ccccc2Cl)cc1

- IC50 (Renin [2]): 5000 nM
Compound: Brc1ccc([C@H]2CCNC[C@@H]2OCc2ccc3ccccc3c2)cc1

- IC50 (Renin [9]): 20 nM
Compound: CCCCNC(=O)[C@@H](NC[C@@H]1CCCCOc2ccccc2C[C@H](NC(=O)OC(C)(C)C)C(=O)N[C@@H](Cc2cnc[nH]2)C(=O)N1)C(C)C

- IC50 (Renin [1]): 0.3 nM
Compound: COCCCCOc1ccccc1C(=O)NC[C@@H](C[C@H](N)[C@@H](O)C[C@H](C(=O)NCCC1CCN(C(C)=O)CC1)C(C)C)C(C)C

- IC50 (Renin [1]): 18 nM
- IC50 (Renin [2]): 1.4 nM
Compound: COc1ccccc1COCCCOc1ccc(C2=C(C(=O)N(Cc3ccnc(OC)c3C)C3CC3)[C@H]3CNC[C@@H](C2)N3)cc1

- IC50 (Renin [1]): 0.6 nM
- logD [3]: 3
- solubility [12]: 124 µg/mL (≈ 206 µM)
Compound: COc1ccccc1COCCCOc1ccc([C@H]2CCNC[C@@H]2OCc2ccc3c(c2)N(CCNC(C)=O)CCC3)cc1

- IC50 (Renin [1]): 2.2 nM
- IC50 (Renin [2]): 0.06 nM
- solubility [12]: 24 µg/mL (≈ 38 µM)
- bioavailability [13]: 27%
- logD [14]: 3.7
Compound: COc1ccccc1COCCCOc1ccc([C@@H]2[C@@H](OCc3cc(OC)c4ccccc4c3)CNC[C@H]2OC[C@H](O)CO)cc1

- IC50 (Renin [2]): 0.5 nM
Compound: COc1ccccc1COCCCOc1ccc(N2CCNC[C@@H]2COC2=CC3C(C=C2)CCCN3CCNC(C)=O)cc1 (stereo not given in full)

- IC50 (Renin [2]): 0.29 nM
Compound: COc1ccccc1COCCCOc1ccc(N2C(=O)CNC[C@@H]2COC2=CC3C(C=C2)CCCN3CCNC(C)=O)cc1 (stereo not given in full)

- IC50 (Renin [2]): 0.68 nM
Compound: COCCCN1C(=O)COC2C=CC(OC[C@H]3CNCC(=O)N3c3ccc(OCCCOCc4ccccc4OC)cc3)=CC21 (stereo not given in full)

- IC50 (Renin [2]): 0.18 nM
Compound: COCCCN1C(=O)COC2C=CC(SC[C@H]3CNCC(=O)N3c3ccc(OCCCOCc4ccccc4OC)cc3)=CC21 (stereo not given in full)

- Kd (Renin [8]): 270 nM
Compound: CCc1nc(N)nc(NCCc2ccccc2NC(=O)c2ccc(N)c(OC)c2)c1-c1ccc2c(c1)N(CCCOC)C(=O)C(C)(C)O2

- IC50 (Renin [2]): 0.62 nM
Compound: COc1ccccc1COCCCOc1ccc(C2=C(C(=O)N(Cc3cccc(OC)c3C)C3CC3)[C@H]3CNC[C@@H](C2)N3)cc1

- IC50 (Renin [2]): 39 nM
Compound: COc1cccc(OCCCc2cccnc2)c1C(=O)N[C@@H](CC1CCCCC1)[C@@H](O)[C@@H](O)CC(C)C

- IC50 (Renin [2]): 25000 nM
- IC50 [15]: 1500 nM
Compound: COc1ccc(CO[C@H]2CNCC[C@@H]2c2ccc(Cl)cc2)cc1

- IC50 (Renin [1]): 31 nM
- IC50 (Renin [2]): 0.21 nM
- logD [3]: 5.6
- solubility [12]: 3 µg/mL (≈ 5.81 µM)
Compound: COc1ccccc1COCCCOc1ccc([C@H]2CCNC[C@@H]2OCc2ccc3c(c2)NCCC3)cc1

- IC50 (Renin [1]): 8.9 nM
- solubility [12]: 3 µg/mL (≈ 4.65 µM)
- bioavailability [13]: 6%
- logD [14]: 5.7
Compound: COC[C@@H](O)CO[C@@H]1CNC[C@H](OCc2cc(OC)c3ccccc3c2)[C@H]1c1ccc(OCCCOCc2ccccc2OC)cc1

- IC50 (Renin [2]): 12 nM
Compound: COc1ccccc1COCCCOc1ccc(N2C(=O)CNC[C@@H]2COCc2cccnc2)cc1

Source: ChEMBL document CHEMBL1275274, “Direct renin inhibitors as a new therapy for hypertension” (J Med Chem, 2010)
